Source: patent US20250340516A1, “Isoquinolinones as Modulators of POLRMT” (Pretzel Therapeutics, Inc., priority 2024, published 2025)

Biological target: POLRMT (Homo sapiens (Human), UniProt O00411)
Experiment: homogeneous TR-FRET assay of POLRMT inhibition (mitochondrial transcription, 407 bp RNA product)
Format: biochemical
Details: 7.5 nM POLRMT, 15 nM TFB2M, 30 nM TFAM, 0.5 nM DNA template, 500 μM NTPs, 37° C., 60 minutes, * = aggregation of data sets, read-out: IC50 values for isoquinolinone compounds
Experimental: The inhibitory activity of the compounds of the present invention against POLRMT were determined by assays based on Bergbrede, T., et al., “An adaptable high-throughput technology enabling the identification of specific transcription modulators,” SLAC Discov., 22, 378-386 (2017).
The ability of some compounds of the present invention to inhibit POLRMT were determined in a homogeneous TR-FRET Assay using high-throughput screening in a 384-well plate format. This method is used to monitor the activity of mitochondrial transcription through measurement of its product, a 407 bp long RNA transcript. Detection of the product is facilitated by hybridization of two DNA-oligonucleotide probes to specific and adjacent sequences within the RNA product sequence. Upon annealing of the probes, two fluorophores are coupled directly to an acceptor nucleotide probe (ATTO647, 5′), or introduced via a coupled streptavidin with a biotinylated donor nucleotide probe (Europium cryptate) that is brought into sufficient proximity to serve as a fluorescence-donor-acceptor pair. Thus, a FRET signal at 665 nm is generated upon excitation at 340 nm.
Proteins used as transcription factors (POLRMT: NP_005026.3, TFAM: NP_003192.1, TFB2M: NP_071761.1) are diluted from their stocks to working concentrations of 1 μM, 20 μM and 4 μM respectively, in a dilution buffer containing 20 mM Tris-HCl (pH 8.0), 200 mM NaCl, 10% (v/v) glycerol, 1 mM Dithiothreitol (DTT), 0.5 mM EDTA.
DNA template is a pUC18 plasmid with the mitochondrial light strand promotor sequence (1-477) cloned between HindIII and BamHI sites. The DNA template is restriction linearized proximal to the promotor 3′-end (pUC-LSP).
The reaction mixture (10 uL) containing 7.5 nM POLRMT, 15 nM of TFB2M, 30 nM of TFAM, 0.5 nM of DNA template and 500 μM nucleotide triphosphate mix (NTPs) in a reaction buffer (containing 10 mM Tris-HCl (pH 7.5), 10 mM MgCl2, 40 mM NaCl, 10 mM DTT, 0.005% (w/v) Tween-20, 160 units/ml Rnase inhibitor and 0.1 mg/mL BSA) are dispensed to compounds in microplates, using a Thermo Multidrop® dispenser, and incubated at 37° C. in a VWR INCU-Line incubator for 60 minutes after mixing. No nucleotide triphosphate mix is added to negative control samples. Microplates with compounds to be tested in the assay are prepared from 10 mM compound stocks in 100% DMSO, equal amounts of DMSO without any compound are added to positive control and negative control samples.
During the incubation, a mix of the detection reagents is prepared in a buffer such that the enzymatic reaction is terminated due to chelating of Mg-ions and increased ionic strength, containing 50 mM Tris-HCl (pH 7.5), 700 mM NaCl, 20 mM EDTA, and 0.01% (w/v) Tween-20. Europium-streptavidin is pre-incubated with a 200-fold molar excess of a random sequence oligonucleotide to block unspecific binding of oligo, for two hours at ambient temperature in the dark. Afterwards, the blocked Europium-streptavidin is kept on ice until use.
At the end of the enzymatic reaction time, 5 μL detection oligo mix in the detection buffer is added, and assay plates are mixed and kept at ambient temperature for one hour, protected from light. The concentration of the Acceptor nucleotide oligo (e.g., ATTO647N-5′-[…]-3′ (SEQ ID NO: 1)) and Donor nucleotide oligo (e.g., bio-5′-AACACATCTCT(-bio)GCCAAACCCCA-bio-3′ (SEQ ID NO: 2)) in each assay well is 1 nM, and 3 nM, respectively.
After incubation with oligo mix, 5 μL of pre-blocked Europium-streptavidin reagent is dispensed to each assay well, assay plates are again mixed and kept at ambient temperature for one hour, protected from light.
The generated signal is measured with BMG Pherastar microtiter plate reader with a TRF light unit, using excitation at 340 nm, an integration time of 200 μs, and a delay time of 100 μs, before detection at 620 nm and 665 nm. The ratio of donor- and acceptor-fluorescence is used as a measure of the generated transcript product (i.e. enzymatic activity).

Sequence of POLRMT (O00411 42-1230): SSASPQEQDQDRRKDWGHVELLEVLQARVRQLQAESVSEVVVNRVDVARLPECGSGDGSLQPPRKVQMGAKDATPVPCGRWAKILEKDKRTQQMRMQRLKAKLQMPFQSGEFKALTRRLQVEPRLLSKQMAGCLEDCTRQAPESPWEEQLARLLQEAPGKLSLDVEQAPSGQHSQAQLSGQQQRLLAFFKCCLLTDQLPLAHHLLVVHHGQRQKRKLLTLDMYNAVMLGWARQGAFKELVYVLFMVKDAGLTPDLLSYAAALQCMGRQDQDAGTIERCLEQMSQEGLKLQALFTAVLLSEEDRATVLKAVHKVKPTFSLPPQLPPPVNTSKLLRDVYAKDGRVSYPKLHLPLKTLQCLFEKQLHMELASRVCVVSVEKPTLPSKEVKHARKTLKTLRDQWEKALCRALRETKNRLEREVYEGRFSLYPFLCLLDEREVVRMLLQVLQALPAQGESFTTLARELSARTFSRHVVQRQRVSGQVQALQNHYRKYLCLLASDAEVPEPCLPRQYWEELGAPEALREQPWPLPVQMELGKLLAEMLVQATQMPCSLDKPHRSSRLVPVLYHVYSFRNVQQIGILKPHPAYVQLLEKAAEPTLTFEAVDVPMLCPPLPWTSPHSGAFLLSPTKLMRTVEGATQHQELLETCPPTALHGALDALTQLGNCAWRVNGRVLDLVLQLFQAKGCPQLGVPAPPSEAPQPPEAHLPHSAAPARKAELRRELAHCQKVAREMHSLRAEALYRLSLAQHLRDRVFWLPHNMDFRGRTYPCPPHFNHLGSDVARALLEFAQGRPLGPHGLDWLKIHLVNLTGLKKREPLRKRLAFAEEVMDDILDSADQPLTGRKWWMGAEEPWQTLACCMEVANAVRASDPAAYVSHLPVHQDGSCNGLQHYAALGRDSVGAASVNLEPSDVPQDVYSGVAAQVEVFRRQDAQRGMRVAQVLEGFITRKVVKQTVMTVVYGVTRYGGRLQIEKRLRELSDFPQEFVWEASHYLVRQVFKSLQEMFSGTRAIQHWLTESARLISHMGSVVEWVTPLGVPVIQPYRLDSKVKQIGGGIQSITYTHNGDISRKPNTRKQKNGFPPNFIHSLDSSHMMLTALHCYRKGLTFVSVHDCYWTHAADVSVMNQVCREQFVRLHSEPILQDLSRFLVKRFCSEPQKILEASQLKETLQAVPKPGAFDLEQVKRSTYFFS

Point of comparison: `CNC1CCN(C(=O)[C@@H](C)Oc2ccc3c(-c4ccccc4C)c[nH]c(=O)c3c2)CC1` [Example 68, (R)-7-((1-(4-(methylamino)piperidin-1-yl)-1-oxopropan-2-yl)oxy)-4-(o-tolyl)isoquinolin-1(2H)-one], IC50 200 nM. Against it:
- Cc1ccccc1-c1c[nH]c(=O)c2cc(O[C@H](C)C(=O)NCC(N)=O)ccc12 [Example 60, (R)-N-(2-amino-2-oxoethyl)-2-((1-oxo-4-(o-tolyl)-1,2-dihydroisoquinolin-7-yl)oxy)propanamide] — 2-fold lower, 100 nM
- Cc1ccccc1-c1c[nH]c(=O)c2cc(O[C@H](C)C(=O)N(C)CC(N)=O)ccc12 [Example 61, (R)-N-(2-amino-2-oxoethyl)-N-methyl-2-((1-oxo-4-(o-tolyl)-1,2-dihydroisoquinolin-7-yl)oxy)propanamide] — 2-fold lower, 100 nM
- Cc1ccccc1-c1c[nH]c(=O)c2cc(O[C@H](C)C(=O)NC3(C(N)=O)CC3)ccc12 [Example 62, (R)-1-(2-((1-oxo-4-(o-tolyl)-1,2-dihydroisoquinolin-7-yl)oxy)propanamido)cyclopropane-1-carboxamide] — 2-fold lower, 100 nM
- COCCc1ccccc1-c1c[nH]c(=O)c2cc(OCC#N)ccc12 [Example 63, 2-((4-(2-(2-methoxyethyl)phenyl)-1-oxo-1,2-dihydroisoquinolin-7-yl)oxy)acetonitrile] — higher, > 100000 nM
- Cc1ccccc1-c1c[nH]c(=O)c2cc(O[C@H](C)C(=O)N3CC[C@@H](N(C)C)C3)ccc12 [Example 64, 7-(((R)-1-((R)-3-(dimethylamino)pyrrolidin-1-yl)-1-oxopropan-2-yl)oxy)-4-(0-tolyl)isoquinolin-1(2H)-one] — the same, 200 nM
- Cc1ccccc1-c1c[nH]c(=O)c2cc(O[C@H](C)C(=O)N3CC[C@H](N(C)C)C3)ccc12 [Example 65, 7-(((R)-1-((S)-3-(dimethylamino)pyrrolidin-1-yl)-1-oxopropan-2-yl)oxy)-4-(o-tolyl)isoquinolin-1(2H)-one] — 2-fold lower, 100 nM
- Cc1ccccc1-c1c[nH]c(=O)c2cc(N(C)CC(=O)N[C@H](C)C(N)=O)ccc12 [Example 69, (R)-2-(2-(methyl(1-oxo-4-(o-tolyl)-1,2-dihydroisoquinolin-7-yl)amino)acetamido)propanamide] — 15-fold higher, 3000 nM
- Cc1c(F)cccc1-c1c[nH]c(=O)c2cc(N(C)CC(=O)NCCO)ccc12 [Example 70, 2-((4-(3-fluoro-2-methylphenyl)-1-oxo-1,2-dihydroisoquinolin-7-yl)(methyl)amino)-N-(2-hydroxyethyl)acetamide] — 5-fold higher, 1000 nM
- Cc1cccc(CO)c1-c1c[nH]c(=O)c2cc(OCC(F)(F)F)ccc12 [Example 71, 4-(2-(hydroxymethyl)-6-methylphenyl)-7-(2,2,2-trifluoroethoxy)isoquinolin-1(2H)-one] — 2.5-fold lower, 80 nM
- Cc1cccc(CO)c1-c1c[nH]c(=O)c2cc(OCC(F)F)ccc12 [Example 72, 7-(2,2-difluoroethoxy)-4-(2-(hydroxymethyl)-6-methylphenyl)isoquinolin-1(2H)-one] — 2-fold lower, 100 nM
- Cc1ccccc1-c1c[nH]c(=O)c2cc(O[C@H](C)C(=O)N[C@@H](C)C(N)=O)ccc12 [Example 73, (R)-N-((S)-1-amino-1-oxopropan-2-yl)-2-((1-oxo-4-(o-tolyl)-1,2-dihydroisoquinolin-7-yl)oxy)propanamide] — 2-fold lower, 100 nM
- [2H]C([2H])([2H])c1ccccc1-c1c[nH]c(=O)c2cc(O[C@H](C)C(=O)N3CCN(C(N)=O)CC3)ccc12 [Example 74, (R)-4-(2-((4-(2-(methyl-d3)phenyl)-1-oxo-1,2-dihydroisoquinolin-7-yl)oxy)propanoyl)piperazine-1-carboxamide] — 2.5-fold lower, 80 nM
- CCNC1CCN(C(=O)[C@@H](C)Oc2ccc3c(-c4ccccc4C)c[nH]c(=O)c3c2)CC1 [Example 77, (R)-7-((1-(4-(ethylamino)piperidin-1-yl)-1-oxopropan-2-yl)oxy)-4-(o-tolyl)isoquinolin-1(2H)-one] — 5-fold higher, 1000 nM
- Cc1ccccc1-c1c[nH]c(=O)c2cc(O[C@H](C)C(=O)N(C)CC(=O)O)ccc12 [Example 78, (R)-N-methyl-N-(2-((1-oxo-4-(o-tolyl)-1,2-dihydroisoquinolin-7-yl)oxy)propanoyl)glycine] — 5-fold higher, 1000 nM
